Measurements from paper PMC5365645, “Preclinical Pharmacokinetics and Pharmacodynamic Target of SCY-078, a First-in-Class Orally Active Antifungal Glucan Synthesis Inhibitor, in Murine Models of Disseminated Candidiasis” (Antimicrobial Agents and Chemotherapy, 2017).

Experiments:
C. albicans CLY18600 = test: Single delayed-dose treatment model of disseminated candidiasis; type: in vivo, mice; conditions: single dose 16 h after infection, tissue burden 96 h after treatment, regression analysis
[1] = design: method as in ref 5 = [5]; 5. Trucksis M , Garrett G , Bautmans A , Heirman I , Laethem M , Comisar WA , Maganti L , Bi S , Iwamoto M , O'Mara E , Wagner JA , Depre M , de Hoon J 2011 A phase I multiple-rising dose study evalua; conditions: single- and multiple-dose phase 1 and 2 clinical studies ref 5; cited from earlier work
in vivo [2] = test: in vivo; design: species or system beagle dogs; conditions: beagle, dog; for half-life: t1/2
Procedure: The pharmacokinetics and bioavailability of SCY-078 were evaluated in uninfected mouse, rat, and dog after p.o. and i.v. administration. The in vivo phases of the PK studies were performed at either […] (Waltham, MA) or MPI Research (Mattawan, MI) after an Institutional Animal Care and Use Committee (IACUC) review. […] and MPI Research are Association for Assessment and Accreditation of Laboratory Animal Care International (AAALAC)-approved facilities. […] The peak concentration (Cmax), the time to maximum concentration (Tmax), the half-life, and the AUC were determined from composite mean plasma concentration-time data for rodents and individual plasma concentration-time data for dogs. All doses and plasma concentrations of SCY-078 are presented as free base. Treatment naive male and female beagle dogs (n = 3/sex/group/time point) weighing 8 to 12 kg (males) or 6 to 10 kg (females) were given a single 5-mg/kg dose of SCY-078 as an i.v. injection over 5 min or an oral dose of 20 mg/kg as described above. Blood specimens were collected from the jugular vein at various time intervals to 72 h postdosing and processed as described above.

in vivo [3] = test: in vivo; design: species or system Wistar Han rats; conditions: Wistar Han, rat; for half-life: t1/2
Procedure: The pharmacokinetics and bioavailability of SCY-078 were evaluated in uninfected mouse, rat, and dog after p.o. and i.v. administration. The in vivo phases of the PK studies were performed at either […] (Waltham, MA) or MPI Research (Mattawan, MI) after an Institutional Animal Care and Use Committee (IACUC) review. […] and MPI Research are Association for Assessment and Accreditation of Laboratory Animal Care International (AAALAC)-approved facilities. […] The peak concentration (Cmax), the time to maximum concentration (Tmax), the half-life, and the AUC were determined from composite mean plasma concentration-time data for rodents and individual plasma concentration-time data for dogs. All doses and plasma concentrations of SCY-078 are presented as free base. Male and female Wistar Han rats (n = 3/sex/group/time point) weighing 0.329 to 0.398 kg (males) or 0.187 to 0.244 kg (females) received a single 5-mg/kg dose of SCY-078 as an i.v. injection in the lateral tail administered over 5 min or an oral dose of 20 mg/kg as described above. Blood specimens were collected from four animals/time point/group using a sparse sampling strategy via the sublingual vein at time intervals to 72 h postdosing and processed as described above.

in vivo [4] = test: in vivo; design: species or system mice, rats, and dogs
Procedure: The pharmacokinetics and bioavailability of SCY-078 were evaluated in uninfected mouse, rat, and dog after p.o. and i.v. administration. The in vivo phases of the PK studies were performed at either […] (Waltham, MA) or MPI Research (Mattawan, MI) after an Institutional Animal Care and Use Committee (IACUC) review. […] and MPI Research are Association for Assessment and Accreditation of Laboratory Animal Care International (AAALAC)-approved facilities. […] The peak concentration (Cmax), the time to maximum concentration (Tmax), the half-life, and the AUC were determined from composite mean plasma concentration-time data for rodents and individual plasma concentration-time data for dogs. All doses and plasma concentrations of SCY-078 are presented as free base. […] Male and female Wistar Han rats (n = 3/sex/group/time point) weighing 0.329 to 0.398 kg (males) or 0.187 to 0.244 kg (females) received a single 5-mg/kg dose of SCY-078 as an i.v. injection in the lateral tail administered over 5 min or an oral dose of 20 mg/kg as described above. Blood specimens were collected from four animals/time point/group using a sparse sampling strategy via the sublingual vein at time intervals to 72 h postdosing and processed as described above. Treatment naive male and female beagle dogs (n = 3/sex/group/time point) weighing 8 to 12 kg (males) or 6 to 10 kg (females) were given a single 5-mg/kg dose of SCY-078 as an i.v. injection over 5 min or an oral dose of 20 mg/kg as described above. Blood specimens were collected from the jugular vein at various time intervals to 72 h postdosing and processed as described above.

C. albicans MY1055 = test: Single delayed-dose treatment model of disseminated candidiasis; conditions: single dose 16 h after infection, tissue burden 96 h after treatment, regression analysis
Procedure: Next, a single-dose treatment with SCY-078 was administered. The target endpoint for efficacy in this model was defined as a static effect on the tissue burden measured 96 h after treatment.
For the single delayed-dose treatment model, a single dose of SCY-078 was administered 16 h after infection. The target endpoint for efficacy in this model was a static effect on the tissue burden measured at 96 h posttreatment.

[5] = both sexes, po, 20 mg/kg, Bioavailability
[6] = female (mouse), both (rat, dog), CD-1 (mouse), Wistar Han (rat), beagle (dog), dog, po

For `CC(C)[C@@H](C)[C@@]1(C)CC[C@]2(C)[C@H]3CC[C@@H]4[C@@]5(COC[C@@]4(C)[C@@H](OC[C@](C)(N)C(C)(C)C)[C@H](n4ncnc4-c4ccncc4)C5)C3=CC[C@@]2(C)[C@@H]1C(=O)O` [SCY-078, (1S,4aR,6aS,7R,8R,10aR,10bR,12aR,14R,15R)-15-[[(2R)-2-amino-2,3,3-trimethylbutyl]oxy]-8-[(1R)-1,2-dimethylpropyl]-14-[5-(4-pyridinyl)-1H-1,2,4-triazol-1-yl]-1,6,6a,7,8,9,10,10a,10b,11,12,12a-dodecahydro-1,6a,8,10a-tetramethyl-4H-1,4a-propano-2H-phenanthro[1,2-c]pyran-7-carboxylic acid], the “Dose achieving stasis endpoint” value (C. albicans CLY18600) is listed as 8.97 mg/kg, the Tolerability [1] is listed as “well tolerated” and the AUC(0-inf) (in vivo [2]; both sexes, iv, 5 mg/kg) is listed as 11900 ± 2200 ng·h/mL. For the same compound, the AUC(0-t) (in vivo [2]; both sexes, iv, 5 mg/kg) was 10400 ± 1900 ng·h/mL, the Vd (in vivo [2]; both sexes, iv, 5 mg/kg) was 5.1 L/kg and the clearance (in vivo [2]; both sexes, iv, 5 mg/kg) was 7.5 mL/min/kg. For the same compound, the half-life (in vivo [2]; both sexes, iv, 5 mg/kg) was ~9.3 h, the AUC(0-inf) (in vivo [2]; both sexes, po, 20 mg/kg) was 16000 ng·h/mL and the AUC(0-t) (in vivo [2]; both sexes, po, 20 mg/kg) was 11500 ng·h/mL. For the same compound, the Cmax (in vivo [2]; both sexes, po, 20 mg/kg) was 810 ± 420 ng/mL, the Tmax (in vivo [2]; both sexes, po, 20 mg/kg) was 4 ± 2 h and the bioavailability (in vivo [2]; [5]) was ~35%. The half-life (in vivo [2]; both sexes, po, 20 mg/kg) was ~15.2 h, the “Dose normalized AUC0–∞ to a 1-mg/kg dose” value (in vivo [2]; both, iv) was ~2.4 µg·h/mL and the t1/2 (in vivo [2]; both, iv, 5 mg/kg) was 9.3 h. For the same compound, the AUC(0-inf) (in vivo [3]; both sexes, iv, 5 mg/kg) was 11700 ng·h/mL, the AUC(0-t) (in vivo [3]; both sexes, iv, 5 mg/kg) was 10300 ng·h/mL and the Vd (in vivo [3]; both sexes, iv, 5 mg/kg) was 4.7 L/kg. For the same compound, the clearance (in vivo [3]; both sexes, iv, 5 mg/kg) was 7.33 mL/min/kg, the half-life (in vivo [3]; both sexes, iv, 5 mg/kg) was ~8.7 h and the AUC(0-inf) (in vivo [3]; both sexes, po, 20 mg/kg) was 20800 ng·h/mL. It also gave an AUC(0-t) (in vivo [3]; both sexes, po, 20 mg/kg) of 16400 ng·h/mL, a Cmax (in vivo [3]; both sexes, po, 20 mg/kg) of 1010 ng/mL and a Tmax (in vivo [3]; both sexes, po, 20 mg/kg) of 8 h. For the same compound, the bioavailability (in vivo [3]; [5]) was ~45%, the half-life (in vivo [3]; both sexes, po, 20 mg/kg) was ~9.1 h and the “Dose normalized AUC0–∞ to a 1-mg/kg dose” value (in vivo [3]; both, iv) was ~2.4 µg·h/mL. It also gave a t1/2 (in vivo [3]; both, iv, 5 mg/kg) of 8.7 h, a Cmax (in vivo [4]; CD-1 (mouse), Wistar Han (rat), beagle (dog), dog, po) of ~1000 ng/mL and a half-life (in vivo [4]; both sexes, CD-1, Wistar Han, mouse, rat, po) of 7.8 to 9.1 h. For the same compound, the half-life (in vivo [4]; female (mouse), both (rat), CD-1 (mouse), Wistar Han (rat), iv) was 5.5 to 8.7 h, the Vd (in vivo [4]; female (mouse), both (rat, dog), CD-1 (mouse), Wistar Han (rat), beagle (dog), dog, iv) was 4.7 to 5.3 L/kg and the “Dose normalized AUC0–12 across species” value (in vivo [4]; [6]) was 0.5-0.8 μg/ml·h/mg/kg dose. The Tmax (in vivo [4]; [6]) was 4 to 6 h and the “Dose achieving stasis endpoint” value (C. albicans MY1055) was 10.28 mg/kg.
